Data reported in US8853258B2, “C-linked hydroxamic acid derivatives useful as antibacterial agents” (Pfizer Inc., priority 2009, dated 2014).
≈ marks a conversion by molar mass, not a printed value. Read-outs that look alike come from different tables or passages of the source.

Legend:
[1] = test system: Pseudomonas aeruginosa UI-18: Wild-type (PA-7); test: MIC determination (CLSI), PA-7; assay type: cell-based; conditions: for MIC: Pseudomonas aeruginosa
Procedure, shortened: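 MIC by dilution method per CLSI M7-A7 and M100-S18 guidelines. Strain: wild-type Pseudomonas aeruginosa UI-18.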

[2] = test system: Escherichia coli EC-1: VOGEL, mouse virulent; test: MIC determination (CLSI), EC-1; assay type: cell-based; conditions: for MIC: Escherichia coli
Procedure, shortened: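 E. coli Vogel, a mouse-virulent strain (EC-1), was tested. MICs were set by dilution susceptibility testing per CLSI standards M7-A7/M100-S18.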

[3] = test system: Acinetobacter baumanii/haemolyticus: Multidrug-resistant clinical isolate (AB-3167); test: MIC determination (CLSI), AB-3167; assay type: cell-based; conditions: for MIC: Acinetobacter baumannii
Procedure, shortened: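 Multidrug-resistant clinical isolate AB-3167 (A. baumannii/haemolyticus) tested for minimum inhibitory concentration following CLSI dilution susceptibility standards M7-A7 and M100-S18.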

[4] = target: Pseudomonas aeruginosa LpxC enzyme (Pseudomonas aeruginosa (strain ATCC 15692 / DSM 22644 / CIP 104116 / JCM 14847 / LMG 12228 / 1C / PRS 101 / PAO1), UniProt P47205); test: IC50 Assay, LpxC Enzyme from P. aeruginosa (PA LpxC Enzyme IC50); assay type: biochemical
Procedure, shortened: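 Reaction run 1 h then stopped with 1N HCl. Conversion measured by RapidFire high-throughput mass spectrometry. IC50 derived from percent conversion relative to a no-enzyme control.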

[5] = test system: Klebsiella pneumoniae: Ciprofloxacin-resistant isolate, ESBL, clinical isolate (KP-3700); test: MIC determination (CLSI), KP-3700; assay type: cell-based
Procedure, shortened: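 MIC measured by broth dilution according to CLSI M7-A7 and M100-S18 standards. Test organism was a ciprofloxacin-resistant, ESBL-expressing clinical isolate.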

[6] = Table 1, MIC, read-out: PA-7 (MIC)
[7] = Table 1, MIC, read-out: AB-3167 (MIC)
[8] = Table 1, read-out: PA LpxC enzyeme IC50
[9] = Table 3, read-out: PA LpxC enzyeme IC^50
[10] = Pseudomonas aeruginosa UI-18 (PA-7)
[11] = Acinetobacter baumanii/haemolyticus AB-3167
[12] = P. aeruginosa LpxC enzyme, read-out: PA LpxC enzyeme IC50
[13] = Pseudomonas aeruginosa UI-18 wild-type PA-7
[14] = Escherichia coli EC-1 VOGEL, mouse virulent
[15] = Acinetobacter baumanii/haemolyticus multidrug-resistant clinical isolate AB-3167

| Compound | KP-3700 MIC [5] | IC50 [4, 12] | PA-7 MIC [1, 13] | EC-1 MIC [2, 14] | AB-3167 MIC [3, 15] | other results |
| --- | --- | --- | --- | --- | --- | --- |
| CC(CCc1ccc(Sc2ccccc2)cc1)(C(=O)NO)S(C)(=O)=O (stereo not shown) [Example 12, N-Hydroxy-2-methyl-2-(methylsulfonyl)-4-[4-(phenylthio)phenyl]butanamide] | 32 µg/mL |  |  |  |  | MIC [1, 6]: 8 µg/mL (≈ 21.1 µM); MIC ([2]; read-out: EC-1: (MIC)): 8 µg/mL (≈ 21.1 µM); MIC [3, 7]: 8 µg/mL (≈ 21.1 µM); IC50 [4, 8]: 11.9 nM |
| C#CCOc1ccc(CCC(C)(C(=O)NO)S(C)(=O)=O)cc1 (stereo not shown) [Example 265, N-hydroxy-2-methyl-2-(methylsulfonyl)-4-[4-(prop-2-yn-1-yloxy)phenyl)butanamide] | ≧64 mg/L |  |  |  |  | MIC ([1]; Table 3, read-out: PA-7 MIC): 16 µg/mL (≈ 49.2 µM); MIC ([2]; read-out: EC-1 MIC): ≥ 64 µg/mL; MIC ([3]; Table 3, read-out: AB-3167 MIC): ≥ 64 µg/mL; IC50 [4, 9]: 105 nM |
| CC(CCc1ccc(-c2ccc(N)nc2)c(F)c1)(C(=O)NO)S(C)(=O)=O (stereo not shown) [Example 206] | ≧64 mg/L | 23.5 nM |  |  |  | PA-7 MIC [1, 10]: 16 µg/mL; EC-1 MIC ([2]; Escherichia coli EC-1): ≧64 mg/L; AB-3167 MIC [3, 11]: ≧64 mg/L |
| CC(CCc1ccc(-c2cccc(F)c2F)cc1)(C(=O)NO)S(C)(=O)=O (stereo not shown) [Example 62] | 16 µg/mL | 0.185 nM | 0.25 µg/mL | 0.5 µg/mL | 16 µg/mL |  |
| C[C@@](CCc1ccc(-c2cccnc2)cc1)(C(=O)NO)S(C)(=O)=O [Example 198] | ≧64 mg/L | 3.84 nM | 8 µg/mL | ≧64 mg/L | ≧64 mg/L |  |
| CC(CCc1ccc(C2=CCSCC2)cc1)(C(=O)NO)S(C)(=O)=O (stereo not shown) [Example 226] | 8 µg/mL | 0.32 nM |  |  |  | PA-7 MIC [1, 10]: 1 µg/mL; EC-1 MIC ([2]; Escherichia coli EC-1): 8 µg/mL; AB-3167 MIC [3, 11]: 16 µg/mL |
| CC(CCc1ccc(-c2ccc(N3CCNCC3)cc2)cc1)(C(=O)NO)S(C)(=O)=O (stereo not shown) [Example 185] | ≧64 mg/L | 6.22 nM | 8 µg/mL | 16 µg/mL | ≧64 mg/L |  |
| COc1ccc(-c2ccc(CCC(C)(C(=O)NO)S(C)(=O)=O)cn2)c(F)c1 (stereo not shown) [Example 219] | 16 µg/mL | 1.21 nM |  |  |  | PA-7 MIC [1, 10]: 8 µg/mL; EC-1 MIC ([2]; Escherichia coli EC-1): 4 µg/mL; AB-3167 MIC [3, 11]: ≧64 mg/L |
| C[C@@](CCc1ccc(-c2ccc(OCCCN3CCOCC3)cc2)cc1)(C(=O)NO)S(C)(=O)=O [Example 179] | 2 µg/mL | 0.172 nM | 2 µg/mL | 0.125 µg/mL | 2 µg/mL |  |
| CC(CCc1ccc(-c2ccc(-c3cc(CO)no3)cc2)cc1)(C(=O)NO)S(C)(=O)=O (stereo not shown) [Example 9, N-Hydroxy-4-{4′-[3-(hydroxymethyl)isoxazol-5-yl]biphenyl-4-yl}-2-methyl-2-(methylsulfonyl)butanamide] | 4 µg/mL |  |  |  |  | MIC [1, 6]: 2 µg/mL (≈ 4.5 µM); MIC ([2]; read-out: EC-1: (MIC)): 0.125 µg/mL (≈ 0.281 µM); MIC [3, 7]: 32 µg/mL (≈ 72 µM); IC50 [4, 8]: 0.32 nM |
| C[C@@](CCc1ccc(-c2ccc(CC(=O)N3CCC(O)CC3)cc2)cc1)(C(=O)NO)S(C)(=O)=O [Example 191] | ≧64 mg/L | 2.63 nM | 16 µg/mL | ≧64 mg/L | ≧64 mg/L |  |
| C[C@@](CCc1ccc(-c2ccc3c(c2)OCO3)cc1)(C(=O)NO)S(C)(=O)=O [Example 215] | 2 µg/mL | 0.0842 nM |  |  |  | PA-7 MIC [1, 10]: 0.5 µg/mL; EC-1 MIC ([2]; Escherichia coli EC-1): 0.5 µg/mL; AB-3167 MIC [3, 11]: 16 µg/mL |
| CC(CCc1ccc(OCCC2CCOCC2)cc1)(C(=O)NO)S(C)(=O)=O (stereo not shown) [Example 281, N-hydroxy-2-methyl-2-(methylsulfonyl)-4-{4-[2-(tetrahydro-2H-pyran-4-yl)ethoxy]phenyl}butanamide] | ≧64 mg/L |  |  |  |  | MIC ([1]; Table 3, read-out: PA-7 MIC): 32 µg/mL (≈ 80.1 µM); MIC ([2]; read-out: EC-1 MIC): ≥ 64 µg/mL; MIC ([3]; Table 3, read-out: AB-3167 MIC): ≥ 64 µg/mL; IC50 [4, 9]: 6.77 nM |
| CC(CCc1ccc(-c2ccc(N3CCOCC3)cc2)cc1)(C(=O)NO)S(C)(=O)=O (stereo not shown) [Example 165] | 8 µg/mL | 0.295 nM | 8 µg/mL | 0.5 µg/mL | ≧64 mg/L |  |
